Where “and” joins values, the source holds several entries; their conditions need not be identical. Identical values can stand only once.
Columns and labels:
[1] = Micelle hydrodynamic diameter of E5564 through NaOH dissolution, lactose phosphate buffer, freeze-drying and re-hydration; settings: upon freeze-drying
Text: This solution was then combined with a lactose containing phosphate buffer solution to yield a solution pH of 7-8. […] This solution was then filtered through a 0.2 μm filter to render the solution sterile in the manner conventional to pharmaceutical manufacturing. The sterile solution was then filled into vials and freeze-dried.

[2] = Micelle hydrodynamic diameter of E5564 before lyophilization and after reconstitution, admixture and storage
Text: After lyophilization the micelles were reconstituted with water diluted in an aqueous dextrose solution (Table 2). […] (Table 2).

[3] = E5564 micelle hydrodynamic diameter before and after simulated I.V. infusion using administration equipment (DLS); settings: simulated administration conditions using representative infusion equipment
Text: The following conditions apply to the data in Table 4: Microbore 60″ extension set with PVC free fluid path, No. V6212 (McGraw, Inc.); 3 cc syringe with Luer Lok, No. 309585 (Becton Dickenson); Injection site with Luer Lok, No. 2N1199 (Baxter); Needle, 20G 1, No. 305175 (Becton Dickenson); I.V. catheter, JELCO, No. 4050 (Johnson & Johnson Medical Inc.).

In the case of `CCCCCC/C=C\CCCCCCCCCC(=O)N[C@H]1[C@H](OC[C@H]2O[C@H](OP(=O)(O)O)[C@H](NC(=O)CC(=O)CCCCCCCCCCC)[C@@H](OCCCCCCCCCC)[C@@H]2O)OC(COC)[C@@H](OP(=O)(O)O)[C@@H]1OCC[C@@H](CCCCCCC)OC` (stereo partly shown) [Compound E5564], the “micelle hydrodynamic diameter stability” value [1] is reported as “stable”, the “micelle hydrodynamic diameter stability” value ([2]; […], or under refrigeration) is reported as “stable” and the “hydrodynamic diameter (nm)” value ([2]; admixed with 5% dextrose solution (0.14 mg/mL), storage for 24 hours at 25° C.) is reported as 8.1 nm. For the same compound, the “hydrodynamic diameter (nm)” value ([2]; admixed with 5% dextrose solution (0.14 mg/mL), storage for 72 hours at 2-8° C.) was 7.7 nm, the “hydrodynamic diameter (nm)” value ([2]; immediately following admixture with 5% dextrose solution (0.14 mg/mL)) was 7.7 nm and 6.8 nm and the “hydrodynamic diameter (nm)” value ([2]; immediately following reconstitution (0.5 mg/mL)) was 8.6 nm and 7.7 nm and 6.9 nm. The “hydrodynamic diameter (nm)” value ([2]; reconstituted solution (0.5 mg/mL), storage for 24 hours at 25° C.) was 8.2 nm, the “hydrodynamic diameter (nm)” value ([2]; reconstituted solution (0.5 mg/mL), storage for 72 hours at 2-8° C.) was 8.3 nm and the “hydrodynamic diameter (nm)” value ([2]; reconstituted solution after storage of lyophilized drug product 6 months at 2-8° C.) was 7.5 nm. For the same compound, the “hydrodynamic diameter (nm)” value ([2]; reconstituted solution after storage of lyophilized drug product 6 months at 25° C./60% RH) was 7.3 nm and 7.2 nm, the “hydrodynamic diameter (nm)” value ([2]; reconstituted solution, lyophilized drug product, initial) was 8.6 nm and 7.7 nm and 6.9 nm and the “hydrodynamic diameter (nm)” value ([2]; solutions prior to lyophilization) was 7.6 nm and 7.4 nm and 7.9 nm. For the same compound, the “micelle hydrodynamic diameter stability” value [3] was “stable”.

Reference: patent publication US6906042B2, “Micelles” (Eisai Co., Ltd., priority 2000, dated 2005)
